pIC50: −log10 of the molar value.
How the values were obtained:
Type in all cases: biochemical
AKT3 = target: T1, AKT3 (Homo sapiens, UniProt Q9Y243); experiment: AKT Kinase Assay (IMAP fluorescent polarisation) vs AKT3
T1 construct: purchased SignalChem
Summary of the method: (§1)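 Phosphorylation of FAM-Crosstide detected by IMAP binding and fluorescence polarisation (485/528 nm), with IC50 fitted from % inhibition versus vehicle. Compound was incubated 45 min with enzyme, then reacted 1 h at room temperature with ATP and peptide in Tris/MgCl2/DTT buffer. Dose response had fourteen half-log points.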

AKT2 = target: T2, AKT2 (Homo sapiens, UniProt P31751); experiment: AKT Kinase Assay (IMAP fluorescent polarisation) vs AKT2
T2 construct: purchased SignalChem
T2 sequence (P31751 whole entry): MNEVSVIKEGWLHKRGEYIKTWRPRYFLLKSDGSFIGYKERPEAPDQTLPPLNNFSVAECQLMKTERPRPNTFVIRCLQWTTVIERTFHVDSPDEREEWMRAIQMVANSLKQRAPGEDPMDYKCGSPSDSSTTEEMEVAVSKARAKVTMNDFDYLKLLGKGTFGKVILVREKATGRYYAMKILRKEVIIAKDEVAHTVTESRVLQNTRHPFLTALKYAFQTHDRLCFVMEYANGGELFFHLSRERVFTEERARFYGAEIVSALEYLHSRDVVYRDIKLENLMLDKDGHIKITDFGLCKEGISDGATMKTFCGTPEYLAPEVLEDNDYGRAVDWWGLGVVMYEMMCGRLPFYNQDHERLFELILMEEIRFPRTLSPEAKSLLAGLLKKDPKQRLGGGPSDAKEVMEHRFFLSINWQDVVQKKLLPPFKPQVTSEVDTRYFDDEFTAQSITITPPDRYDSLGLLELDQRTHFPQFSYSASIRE
Summary of the method: as §1

AKT1 = target: T3, AKT1 (Homo sapiens, UniProt P31749); experiment: AKT Kinase Assay (IMAP fluorescent polarisation) vs AKT1
T3 construct: purchased SignalChem
T3 sequence (P31749 whole entry): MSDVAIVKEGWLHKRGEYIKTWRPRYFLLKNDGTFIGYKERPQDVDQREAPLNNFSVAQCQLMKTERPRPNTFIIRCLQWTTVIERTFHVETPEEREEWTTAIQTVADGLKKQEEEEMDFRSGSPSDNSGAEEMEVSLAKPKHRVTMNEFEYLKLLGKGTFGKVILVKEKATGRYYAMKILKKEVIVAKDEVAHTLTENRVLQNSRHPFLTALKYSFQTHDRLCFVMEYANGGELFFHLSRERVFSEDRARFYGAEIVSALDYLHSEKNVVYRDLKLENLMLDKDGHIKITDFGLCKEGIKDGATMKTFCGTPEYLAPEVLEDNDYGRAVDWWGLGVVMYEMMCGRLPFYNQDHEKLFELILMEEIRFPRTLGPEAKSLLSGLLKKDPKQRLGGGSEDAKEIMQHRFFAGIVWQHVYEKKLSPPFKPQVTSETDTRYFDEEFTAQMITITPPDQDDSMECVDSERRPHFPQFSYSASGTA
Summary of the method: as §1

T1 sequence (Q9Y243 whole entry): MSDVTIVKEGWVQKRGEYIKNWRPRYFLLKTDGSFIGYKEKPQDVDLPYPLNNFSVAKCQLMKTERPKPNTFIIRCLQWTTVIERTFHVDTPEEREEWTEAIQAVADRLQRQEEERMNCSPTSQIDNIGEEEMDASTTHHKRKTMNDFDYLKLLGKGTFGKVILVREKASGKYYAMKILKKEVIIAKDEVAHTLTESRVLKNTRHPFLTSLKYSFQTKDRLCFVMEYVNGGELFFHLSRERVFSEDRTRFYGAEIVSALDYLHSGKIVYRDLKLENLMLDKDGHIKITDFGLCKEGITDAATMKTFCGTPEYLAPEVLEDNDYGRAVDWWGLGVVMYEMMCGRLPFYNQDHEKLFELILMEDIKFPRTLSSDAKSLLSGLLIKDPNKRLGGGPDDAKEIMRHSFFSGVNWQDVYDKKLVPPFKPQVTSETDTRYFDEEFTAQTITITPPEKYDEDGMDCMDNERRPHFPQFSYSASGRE

`CCN1C(=O)COc2nc(-c3ccc([C@]4(N)C[C@@H](O)C4)cc3)c(-c3ccccc3)cc21` [Example 139, 6-(4-((1s,3s)-1-amino-3-hydroxycyclobutyl)phenyl)-1-ethyl-7-phenyl-1H-pyrido[2,3-b][1,4]oxazin-2(3H)-one] was tested, and the pIC50 (AKT3) was 5.00 to 6.00, the pIC50 (AKT2) was 6.00 to 7.00 and the pIC50 (AKT1) was 6.00 to 7.00.

Compound `CN1C(=O)C(CCO)Oc2nc(-c3ccc(C4(N)CCC4)cc3)c(-c3ccccc3)cc21` (stereo not drawn) [Example 77, 6-(4-(1-aminocyclobutyl)phenyl)-3-(2-hydroxyethyl)-1-methyl-7-phenyl-1H-pyrido[2,3-b][1,4]oxazin-2(3H)-one] has a pIC50 (AKT3) of under 5.00, a pIC50 (AKT2) of 5.00 to 6.00 and a pIC50 (AKT1) of 6.00 to 7.00.

With `NC1(c2ccc(-c3nc4c(cc3-c3ccccc3)N(CCF)C(=O)N(CCF)C4)cc2)CCC1` [Example 109, 6-(4-(1-aminocyclobutyl)phenyl)-1,3-bis(2-fluoroethyl)-7-phenyl-3,4-dihydropyrido[3,2-d]pyrimidin-2(1H)-one] the pIC50 (AKT3) was 6.00 to 7.00, the pIC50 (AKT2) was at least 7.00 and the pIC50 (AKT1) was at least 7.00.

`CNc1[nH]nc2c1CCc1nc(-c3ccc(C4(N)CCC4)cc3)c(-c3ccccc3)cc1-2` [Example 11, 7-(4-(1-aminocyclobutyl)phenyl)-N-methyl-8-phenyl-4,5-dihydro-2H-pyrazolo[3,4-f]quinolin-3-amine] showed a pIC50 (AKT3) of under 5.00, a pIC50 (AKT2) of 6.00 to 7.00 and a pIC50 (AKT1) of 6.00 to 7.00.

`N#CCN1C(=O)C(CCO)Oc2nc(-c3ccc(C4(N)CCC4)cc3)c(-c3ccccc3)cc21` (stereo not drawn) [Example 78] gave a pIC50 (AKT3) of under 5.00, a pIC50 (AKT2) of 6.00 to 7.00 and a pIC50 (AKT1) of 6.00 to 7.00.

`CCOC(=O)CN1C(=O)COc2nc(-c3ccc(C4(N)CCC4)cc3)c(-c3ccccc3)cc21` [Example 49, ethyl 2-(6-(4-(1-aminocyclobutyl)phenyl)-2-oxo-7-phenyl-2,3-dihydro-1H-pyrido[2,3-b][1,4]oxazin-1-yl)acetate] showed a pIC50 (AKT3) of 6.00 to 7.00, a pIC50 (AKT2) of 6.00 to 7.00 and a pIC50 (AKT1) of 6.00 to 7.00.

`CN1C(=O)COc2nc(-c3ccc([C@]4(N)C[C@@](C)(O)C4)cc3)c(-c3ccccc3)cc21` [Example 134, 6-(4((1s,3s)-1-amino-3-hydroxy-3-methylcyclobutyl)phenyl)-1-methyl-7-phenyl-1H-pyrido[2,3-b][1,4]oxazin-2(3H)-one] was tested, and the pIC50 (AKT3) was under 5.00, the pIC50 (AKT2) was 5.00 to 6.00 and the pIC50 (AKT1) was 6.00 to 7.00.

For `NC1(c2ccc(-c3nc4c(cc3-c3ccccc3)-n3c(nnc3-c3ccccc3)CO4)cc2)CCC1` [Example 129, 1-(4-(1,8-diphenyl-4H-pyrido[2,3-b][1,2,4]triazolo[4,3-d][1,4]oxazin-7-yl)phenyl)cyclobutanamine], the pIC50 (AKT3) was 5.00 to 6.00, the pIC50 (AKT2) was 5.00 to 6.00 and the pIC50 (AKT1) was 6.00 to 7.00.

`CCc1nnc2n1-c1cc(-c3ccccc3)c(-c3ccc(C4(N)CCC4)cc3)nc1OC2` [Example 47, 1-(4-(1-ethyl-8-phenyl-4H-pyrido[2,3-b][1,2,4]triazolo[4,3-d][1,4]oxazin-7-yl)phenyl)cyclobutanamine] was tested, and the pIC50 (AKT3) was 5.00 to 6.00, the pIC50 (AKT2) was 6.00 to 7.00 and the pIC50 (AKT1) was at least 7.00.

`C[C@]1(O)C[C@@](N)(c2ccc(-c3nc4c(cc3-c3ccccc3)N(CC(F)(F)F)C(=O)CO4)cc2)C1` [Example 152, 6-(4-((1r,3r)-1-amino-3-hydroxy-3-methylcyclobutyl)phenyl)-7-phenyl-1-(2,2,2-trifluoroethyl)-1H-pyrido[2,3-b][1,4]oxazin-2(3H)-one] showed a pIC50 (AKT3) of 5.00 to 6.00, a pIC50 (AKT2) of at least 7.00 and a pIC50 (AKT1) of 6.00 to 7.00.

Compound `NC1(c2ccc(-c3nc4c(cc3-c3ccccc3)-n3c(nnc3CC(F)(F)F)CO4)cc2)CCC1` [Example 118, 1-(4-(8-phenyl-1-(2,2,2-trifluoroethyl)-4H-pyrido[2,3-b][1,2,4]triazolo[4,3-d][1,4]oxazin-7-yl)phenyl)cyclobutanamine] has a pIC50 (AKT3) of 5.00 to 6.00, a pIC50 (AKT2) of 5.00 to 6.00 and a pIC50 (AKT1) of 6.00 to 7.00.

`NC(=O)CN1C(=O)COc2nc(-c3ccc(C4(N)CCC4)cc3)c(-c3ccccc3)cc21` [Example 35, 2-(6-(4-(1-aminocyclobutyl)phenyl)-2-oxo-7-phenyl-2,3-dihydro-1H-pyrido[2,3-b][1,4]oxazin-1-yl)acetamide] gave a pIC50 (AKT3) of under 5.00, a pIC50 (AKT2) of 6.00 to 7.00 and a pIC50 (AKT1) of 5.00 to 6.00.

Compound `NC1(c2ccc(-c3nc4c(cc3-c3ccccc3)N(Cc3cscn3)C(=O)CO4)cc2)CCC1` [Example 59, 6-(4-(1-aminocyclobutyl)phenyl)-7-phenyl-1-(thiazol-4-ylmethyl)-1H-pyrido[2,3-b][1,4]oxazin-2(3H)-one] has a pIC50 (AKT3) of 5.00 to 6.00, a pIC50 (AKT2) of 6.00 to 7.00 and a pIC50 (AKT1) of 5.00 to 6.00.

Compound `CN(C)CCN1C(=O)COc2nc(-c3ccc(C4(N)CCC4)cc3)c(-c3ccccc3)cc21` [Example 34, 6-(4-(1-aminocyclobutyl)phenyl)-1-(2-(dimethylamino)ethyl)-7-phenyl-1H-pyrido[2,3-b][1,4]oxazin-2(3H)-one] has a pIC50 (AKT3) of under 5.00, a pIC50 (AKT2) of 5.00 to 6.00 and a pIC50 (AKT1) of 5.00 to 6.00.

`CN1c2cc(-c3ccccc3)c(-c3ccc(C4(N)CCC4)cc3)nc2OCS1(=O)=O` [Example 73, 6-(4-(1-aminocyclobutyl)phenyl)-1-methyl-7-phenyl-1H-pyrido[3,2-e][1,3,4]oxathiazine 2,2-dioxide] gave a pIC50 (AKT3) of under 5.00, a pIC50 (AKT2) of 6.00 to 7.00 and a pIC50 (AKT1) of 5.00 to 6.00.

`C[C@H]1Oc2nc(-c3ccc(C4(N)CCC4)cc3)c(-c3ccccc3)cc2N(CC#N)C1=O` [Example 93, (R)-2-(6-(4-(1-aminocyclobutyl)phenyl)-3-methyl-2-oxo-7-phenyl-2,3-dihydro-1H-pyrido[2,3-b][1,4]oxazin-1-yl)acetonitrile] showed a pIC50 (AKT3) of 5.00 to 6.00, a pIC50 (AKT2) of at least 7.00 and a pIC50 (AKT1) of at least 7.00.

Compound `NC1(c2ccc(-c3nc4c(cc3-c3ccccc3)N(C3CCCC3)C(=O)CO4)cc2)CCC1` [Example 58, 6-(4-(1-aminocyclobutyl)phenyl)-1-cyclopentyl-7-phenyl-1H-pyrido[2,3-b][1,4]oxazin-2(3H)-one] has a pIC50 (AKT3) of 5.00 to 6.00, a pIC50 (AKT2) of 6.00 to 7.00 and a pIC50 (AKT1) of 5.00 to 6.00.

With `CS(=O)(=O)N1CCOc2nc(-c3ccc(C4(N)CCC4)cc3)c(-c3ccccc3)cc21` [Example 70, 1-(4-(1-(methylsulfonyl)-7-phenyl-2,3-dihydro-1H-pyrido[2,3-b][1,4]oxazin-6-yl)phenyl)cyclobutanamine] the pIC50 (AKT3) was under 5.00, the pIC50 (AKT2) was 6.00 to 7.00 and the pIC50 (AKT1) was 6.00 to 7.00.

Compound `NC1(c2ccc(-c3nc4c(cc3-c3ccccc3)-n3c(nnc3C3CC3)CO4)cc2)CCC1` [Example 110, 1-(4-(1-cyclopropyl-8-phenyl-4H-pyrido[2,3-b][1,2,4]triazolo[4,3-d][1,4]oxazin-7-yl)phenyl)cyclobutanamine] has a pIC50 (AKT3) of 6.00 to 7.00, a pIC50 (AKT2) of 6.00 to 7.00 and a pIC50 (AKT1) of 6.00 to 7.00.

Work on `CCCc1nnc2n1-c1cc(-c3ccccc3)c(-c3ccc(C4(N)CCC4)cc3)nc1OC2` [Example 69, 1-(4-(8-phenyl-1-propyl-4H-pyrido[2,3-b][1,2,4]triazolo[4,3-d][1,4]oxazin-7-yl)phenyl)cyclobutanamine] yielded a pIC50 (AKT3) of 5.00 to 6.00, a pIC50 (AKT2) of 6.00 to 7.00 and a pIC50 (AKT1) of at least 7.00.

`CN1C(=O)COc2nc(-c3ccc(CN)cc3)c(-c3ccccc3)cc21` [Example 131, 6-(4-(aminomethyl)phenyl)-1-methyl-7-phenyl-1H-pyrido[2,3-b][1,4]oxazin-2(3H)-one] gave a pIC50 (AKT3) of 5.00 to 6.00, a pIC50 (AKT2) of 6.00 to 7.00 and a pIC50 (AKT1) of 5.00 to 6.00.

`CCN1CCc2nc(-c3ccc(C4(N)CCC4)cc3)c(-c3ccccc3)cc2C1` [Example 27, 1-(4-(6-ethyl-3-phenyl-5,6,7,8-tetrahydro-1,6-naphthyridin-2-yl)phenyl)cyclobutanamine] was tested, and the pIC50 (AKT3) was under 5.00, the pIC50 (AKT2) was under 5.00 and the pIC50 (AKT1) was 5.00 to 6.00.

With `NC1(c2ccc(-c3nc4c(cc3-c3ccccc3)-n3c(nnc3-c3cccnc3)CO4)cc2)CCC1` [Example 122, 1-(4-(8-phenyl-1-(pyridin-3-yl)-4H-pyrido[2,3-b][1,2,4]triazolo[4,3-d][1,4]oxazin-7-yl)phenyl)cyclobutanamine] the pIC50 (AKT3) was 5.00 to 6.00, the pIC50 (AKT2) was 5.00 to 6.00 and the pIC50 (AKT1) was 6.00 to 7.00.

`CN(C)c1nnc2n1-c1cc(-c3ccccc3)c(-c3ccc(C4(N)CCC4)cc3)nc1OC2` [Example 116, 7-(4-(1-aminocyclobutyl)phenyl)-N,N-dimethyl-8-phenyl-4H-pyrido[2,3-b][1,2,4]triazolo[4,3-d][1,4]oxazin-1-amine] was tested, and the pIC50 (AKT3) was 5.00 to 6.00, the pIC50 (AKT2) was 5.00 to 6.00 and the pIC50 (AKT1) was 5.00 to 6.00.

`CN1CCc2nc(-c3ccc(C4(N)CCC4)cc3)c(-c3ccccc3)cc2C1=O` [Example 23, 2-(4-(1-aminocyclobutyl)phenyl)-6-methyl-3-phenyl-7,8-dihydro-1,6-naphthyridin-5(6H)-one] showed a pIC50 (AKT3) of under 5.00, a pIC50 (AKT2) of 5.00 to 6.00 and a pIC50 (AKT1) of 6.00 to 7.00.

With `N#CCN1c2cc(-c3ccccc3)c(-c3ccc(C4(N)CCC4)cc3)nc2OCS1(=O)=O` [Example 76, 2-(6-(4-(1-aminocyclobutyl)phenyl)-2,2-dioxido-7-phenyl-1H-pyrido[3,2-e][1,3,4]oxathiazin-1-yl)acetonitrile] the pIC50 (AKT3) was under 5.00, the pIC50 (AKT2) was at least 7.00 and the pIC50 (AKT1) was 6.00 to 7.00.

`NC1(c2ccc(-c3nc4c(cc3-c3ccccc3)N(C3CCOCC3)C(=O)CO4)cc2)CCC1` [Example 65, 6-(4-(1-aminocyclobutyl)phenyl)-7-phenyl-1-(tetrahydro-2H-pyran-4-yl)-1H-pyrido[2,3-b][1,4]oxazin-2(3H)-one] showed a pIC50 (AKT3) of under 5.00, a pIC50 (AKT2) of 5.00 to 6.00 and a pIC50 (AKT1) of 5.00 to 6.00.

For `NC1(c2ccc(-c3nc4c(cc3-c3ccccc3)-n3c(nn(CC(F)(F)F)c3=O)CO4)cc2)CCC1` [Example 103, 7-(4-(1-aminocyclobutyl)phenyl)-8-phenyl-2-(2,2,2-trifluoroethyl)-2,4-dihydro-1H-pyrido[2,3-b][1,2,4]triazolo[4,3-d][1,4]oxazin-1-one], the pIC50 (AKT3) was 5.00 to 6.00, the pIC50 (AKT2) was 6.00 to 7.00 and the pIC50 (AKT1) was 5.00 to 6.00.

Work on `N#CCN1C(=O)COc2nc(-c3ccc([C@]4(N)C[C@@H](O)C4)cc3)c(-c3ccccc3)cc21` [Example 147, 2-(6-(4-((1s,3s)-1-amino-3-hydroxycyclobutyl)phenyl)-2-oxo-7-phenyl-2,3-dihydro-1H-pyrido[2,3-b][1,4]oxazin-1-yl)acetonitrile] yielded a pIC50 (AKT3) of under 5.00, a pIC50 (AKT2) of 6.00 to 7.00 and a pIC50 (AKT1) of 6.00 to 7.00.

— US9221838B2, “Inhibitors of AKT activity” (ALMAC DISCOVERY LIMITED, priority 2009, dated 2015)
